Experimental data reported in ChEMBL document CHEMBL4028893, “Discovery and Optimization of Potent, Cell-Active Pyrazole-Based Inhibitors of Lactate Dehydrogenase (LDH)” (J Med Chem, 2017).
Activity calls are given as the source filed them. The rule behind the calls is not given here.

How the values were obtained:
L-lactate dehydrogenase [1] = target: T1, L-lactate dehydrogenase (Homo sapiens, UniProt V9HWB9); experiment: Inhibition of LDH in human A673 cells assessed as reduction in lactate production preincubated for 2 hrs measured after 30 mins by high throughput fluorescence assay; format: cell-based
[2] = target: T2, L-lactate dehydrogenase A chain (Homo sapiens, UniProt P00338)
Description: Inhibition of human liver LDHA using sodium pyruvate as substrate after 5 mins in presence of NAPDH and in absence of EDTA by diaphorase/resazurin based fluorescence assay

L-lactate dehydrogenase [3] = target: T1, L-lactate dehydrogenase; experiment: Inhibition of LDH in human MIAPaCa2 cells assessed as reduction in lactate production preincubated for 2 hrs measured after 30 mins by high throughput fluorescence assay; format: cell-based
[4] = target: T2, L-lactate dehydrogenase A chain; remark: listed apart in the source
Description: Inhibition of human liver LDHA using sodium pyruvate as substrate after 5 mins in presence of NAPDH and EDTA by diaphorase/resazurin based fluorescence assay

[5] = Drug level in human MIAPaCa2 cells by LC-MS/MS analysis; format: ADME, cell-based; conditions: mia paca-2
[6] = target: Isocitrate dehydrogenase [NADP] cytoplasmic (Homo sapiens, UniProt O75874); experiment: Inhibition of wild type IDH1 (unknown origin) using isocitrate as substrate preincubated for 30 mins followed by substrate addition in presence of NADP+ measured up to 5 mins by resorufin-based fluorescence assay
[7] = Drug level in human A673 cells by LC-MS/MS analysis; format: ADME, cell-based
[8] = Inhibition of pig heart MDH using malic acid as substrate preincubated for 10 mins followed by substrate addition measured up to 5 mins by resorufin-based fluorescence assay; set-up: species or system Sus scrofa

Chain of Isocitrate dehydrogenase [NADP] cytoplasmic (O75874 whole entry): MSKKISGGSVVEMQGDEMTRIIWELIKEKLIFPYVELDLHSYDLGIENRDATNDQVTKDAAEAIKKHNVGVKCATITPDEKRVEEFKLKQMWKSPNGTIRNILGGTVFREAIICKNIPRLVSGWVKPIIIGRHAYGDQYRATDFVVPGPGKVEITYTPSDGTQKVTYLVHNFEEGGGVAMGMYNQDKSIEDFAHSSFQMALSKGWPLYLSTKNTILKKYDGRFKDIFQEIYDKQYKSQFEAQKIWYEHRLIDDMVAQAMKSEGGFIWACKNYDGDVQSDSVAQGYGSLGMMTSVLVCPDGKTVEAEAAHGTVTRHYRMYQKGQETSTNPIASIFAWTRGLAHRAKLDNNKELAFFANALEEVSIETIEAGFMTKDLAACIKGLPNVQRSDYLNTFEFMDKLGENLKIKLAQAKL

Row | Structure (SMILES) | inhibition (L-lactate dehydrogenase [1]) | IC50 [2] | inhibition (L-lactate dehydrogenase [3]) | IC50 [4] | Drug uptake [5] | IC50 [6] | Drug uptake [7] | IC50 [8]
1 | O=C(O)c1csc(-n2nc(C3CCCCC3)cc2O)n1 | inactive | 1.1 µM | inactive | > 57 µM | – | – | – | –
2 | O=C(O)c1csc(-n2nc(-c3ccc(F)c(F)c3)cc2O)n1 | inactive | 0.15 µM | inactive | > 57 µM | – | – | – | –
3 | NS(=O)(=O)c1ccc(Cc2c(-c3ccccc3)nn(-c3nc(C(=O)O)cs3)c2CC2CC2)cc1 | – | – | – | – | Active | 47.4 µM | Active | > 57 µM
4 | NS(=O)(=O)N1CCN(Cc2cn(-c3nc(C(=O)O)cs3)nc2-c2ccccc2)CC1 | – | – | – | 17.3 µM | – | – | – | –
5 | NS(=O)(=O)c1cccc(Cc2c(-c3ccc(F)c(F)c3)nn(-c3nc(C(=O)O)cs3)c2O)c1 | – | – | – | > 57 µM | – | – | – | –
6 | NS(=O)(=O)c1ccc(Cc2cn(-c3nc(C(O)C(F)(F)F)cs3)nc2-c2ccccc2)cc1 (stereo not given) | – | – | – | > 57 µM | – | – | – | –
7 | O=C(O)c1csc(-n2nc(-c3cccc(Cl)c3)cc2O)n1 | inactive | 0.168 µM | inactive | > 57 µM | – | – | – | –
8 | NS(=O)(=O)c1ccc(Nc2cn(-c3nc(C(=O)O)cs3)nc2-c2cccc(-c3ccccc3)c2)cc1 | – | – | – | – | Active | > 57 µM | Active | 37.8 µM
9 | Cc1c(Cc2ccc(S(N)(=O)=O)cc2)c(-c2ccccc2)nn1-c1nc(C(=O)O)cs1 | – | – | – | 0.042 µM | – | – | – | –
10 | O=C(O)c1csc(-n2nc(-c3cccc4ccccc34)cc2O)n1 | inactive | 0.213 µM | inactive | > 57 µM | – | – | – | –
11 | O=C(O)c1csc(-n2nc(-c3ccccc3Cl)cc2C(F)(F)F)n1 | inactive | > 57 µM | inactive | > 57 µM | – | – | – | –
12 | N#Cc1c(Cc2ccc(S(N)(=O)=O)cc2)c(-c2ccccc2)nn1-c1nc(C(=O)O)cs1 | – | – | – | 0.115 µM | – | – | – | –
13 | O=C1N[C@](c2ccc(N3CCOCC3)cc2)(c2ccsc2)CC(O)=C1Sc1ccccc1Cl | – | – | – | – | Active | > 57 µM | Active | > 57 µM
14 | Nc1cc(-c2ccccc2)nn1-c1nc(C(=O)O)cs1 | inactive | 26.7 µM | inactive | > 57 µM | – | – | – | –
15 | NS(=O)(=O)c1ccc(Cc2c(-c3ccccc3)nn(-c3nc(C(=O)O)cs3)c2-c2cccnc2)cc1 | – | – | – | – | Active | > 57 µM | Active | > 57 µM
16 | O=C(O)c1csc(-n2nc(-c3ccc(F)cc3)cc2C(F)(F)F)n1 | inactive | – | inactive | – | – | – | – | –
17 | NS(=O)(=O)c1ccc(Cc2c(-c3ccccc3)nn(-c3nc(CO)cs3)c2C(F)(F)F)cc1 | – | – | – | 25.5 µM | – | – | – | –
18 | CC(=O)Nc1cc(-c2ccccc2)nn1-c1nc(C(=O)O)cs1 | inactive | 9.57 µM | inactive | > 57 µM | – | – | – | –
19 | O=C(O)c1csc(-n2nc(-c3ccc(F)cc3)cc2O)n1 | inactive | 0.095 µM | inactive | > 57 µM | – | – | – | –

Row | Structure (SMILES) | inhibition (L-lactate dehydrogenase [1]) | IC50 [2] | inhibition (L-lactate dehydrogenase [3]) | IC50 [4] | Drug uptake [5] | IC50 [6] | Drug uptake [7] | IC50 [8]
20 | O=C(O)c1csc(-n2nc(-c3cccc(C(F)(F)F)c3)cc2O)n1 | inactive | 0.189 µM | inactive | > 57 µM | – | – | – | –
21 | NS(=O)(=O)c1ccc(C(=O)Nc2cn(-c3nc(C(=O)O)cs3)nc2-c2ccccc2)cc1 | – | – | – | > 57 µM | – | – | – | –
22 | O=C(O)c1csc(-n2nc(-c3ccccc3)cc2O)n1 | inactive | 0.144 µM | inactive | > 57 µM | – | – | – | –
23 | O=C(O)c1csc(-n2nc(-c3cccc(Cl)c3)cc2C(F)(F)F)n1 | inactive | > 57 µM | inactive | > 57 µM | – | – | – | –
24 | O=C(O)c1csc(-n2nc(-c3ccccn3)cc2O)n1 | inactive | 1.02 µM | inactive | > 57 µM | – | – | – | –
25 | NS(=O)(=O)c1ccc(NCc2cn(-c3nc(C(=O)O)cs3)nc2-c2ccccc2)cc1 | – | – | – | > 57 µM | – | – | – | –
26 | COc1ccc(-c2cc(O)n(-c3nc(C(=O)O)cs3)n2)cc1 | inactive | 0.229 µM | inactive | > 57 µM | – | – | – | –
27 | O=C(O)c1csc(-n2nc(-c3cccc(-c4ccccc4F)c3)cc2O)n1 | inactive | 0.095 µM | inactive | > 57 µM | – | – | – | –
28 | O=C(O)c1ccc(Cc2c(-c3cccc(-c4ccccc4)c3)nn(-c3nc(C(=O)O)cs3)c2O)cc1 | – | – | – | 33.8 µM | – | – | – | –
29 | O=C(O)c1csc(-n2nc(-c3ccncc3)cc2O)n1 | inactive | 0.669 µM | inactive | > 57 µM | – | – | – | –
30 | Cc1cc(-c2ccccc2)nn1-c1nc(C(=O)O)cs1 | inactive | 15.4 µM | inactive | > 57 µM | – | – | – | –
31 | CNS(=O)(=O)c1ccc(Cc2c(-c3cccc(-c4ccccc4)c3)nn(-c3nc(C(=O)O)cs3)c2O)cc1 | – | – | – | > 57 µM | – | – | – | –
32 | O=C(O)c1csc(-n2nc(-c3ccc(F)cc3F)cc2O)n1 | inactive | 0.084 µM | inactive | > 57 µM | – | – | – | –
33 | NS(=O)(=O)c1ccc(Oc2cn(-c3nc(C(=O)O)cs3)nc2-c2ccccc2)cc1 | – | – | – | 0.124 µM | – | – | – | –
34 | NC(=O)c1ccc(Cc2c(-c3cccc(-c4ccccc4)c3)nn(-c3nc(C(=O)O)cs3)c2O)cc1 | – | – | – | > 57 µM | – | – | – | –
35 | NS(=O)(=O)c1ccc(Oc2c(-c3ccccc3)nn(-c3nc(C(=O)O)cs3)c2C2CC2)cc1 | – | – | – | 0.065 µM | – | – | – | –
36 | O=C(O)c1csc(-n2nc(-c3cccc(F)c3)cc2O)n1 | inactive | 0.162 µM | inactive | > 57 µM | – | – | – | –
37 | NS(=O)(=O)c1ccc(Cc2c(-c3cccc(-c4ccccc4)c3)nn(-c3nc(-c4nnn[nH]4)cs3)c2O)cc1 | – | – | – | > 57 µM | – | – | – | –
38 | O=C(O)c1csc(-n2nc(-c3ccccc3F)cc2O)n1 | inactive | 0.134 µM | inactive | > 57 µM | – | – | – | –

Row | Structure (SMILES) | inhibition (L-lactate dehydrogenase [1]) | IC50 [2] | inhibition (L-lactate dehydrogenase [3]) | IC50 [4] | Drug uptake [5] | IC50 [6] | Drug uptake [7] | IC50 [8]
39 | NS(=O)(=O)c1ccc(Cc2c(-c3ccccc3)nn(-c3nc(C(=O)O)cs3)c2C2CC2)cc1 | – | – | – | – | Active | > 57 µM | Active | 37.8 µM
40 | NC(=O)c1csc(-n2nc(-c3cccc(-c4ccccc4)c3)c(Cc3ccc(S(N)(=O)=O)cc3)c2O)n1 | – | – | – | 27.7 µM | – | – | – | –
41 | NS(=O)(=O)c1ccc(Nc2cn(-c3nc(C(=O)O)cs3)nc2-c2ccccc2)cc1 | – | – | – | – | Active | > 57 µM | Active | > 57 µM
42 | O=C(O)c1csc(-n2nc(-c3cccc(OC(F)(F)F)c3)cc2O)n1 | inactive | 0.299 µM | inactive | > 57 µM | – | – | – | –
43 | NS(=O)(=O)c1ccc(Cc2c(-c3cccc(-c4ccccc4)c3)nn(-c3nc(C(=O)O)cs3)c2O)cc1 | – | – | – | – | Active | 47.4 µM | Active | > 57 µM
44 | CC(C)c1cc(-c2ccccc2)nn1-c1nc(C(=O)O)cs1 | inactive | > 57 µM | inactive | > 57 µM | – | – | – | –
45 | Nc1c(Cc2ccc(S(N)(=O)=O)cc2)c(-c2cccc(-c3ccccc3)c2)nn1-c1nc(C(=O)O)cs1 | – | – | – | – | Active | > 57 µM | Active | 26.8 µM
46 | CCOC(=O)c1csc(-n2nc(-c3cccc(-c4ccccc4)c3)c(Cc3ccc(S(N)(=O)=O)cc3)c2C(F)(F)F)n1 | – | – | – | > 57 µM | – | – | – | –
47 | O=C(O)c1csc(-n2nc(-c3cc(F)cc(F)c3)cc2O)n1 | inactive | 0.11 µM | inactive | > 57 µM | – | – | – | –
48 | O=C(O)c1csc(-n2nc(-c3ccc(F)c(F)c3)c(Cc3ccccc3)c2O)n1 | – | – | – | > 57 µM | – | – | – | –
49 | O=C(O)c1csc(-n2nc(-c3ccc(Cl)cc3)cc2C(F)(F)F)n1 | inactive | 26.6 µM | inactive | 27.7 µM | – | – | – | –
50 | NS(=O)(=O)c1ccc(Cc2c(-c3cccc(-c4ccccc4F)c3)nn(-c3nc(C(=O)O)cs3)c2O)cc1 | – | – | – | – | Active | > 57 µM | Active | –
51 | NS(=O)(=O)c1ccc(Cc2c(-c3ccccc3)nn(-c3nc(C(=O)O)cs3)c2-c2ccccc2)cc1 | – | – | – | 0.139 µM | – | – | – | –
52 | NS(=O)(=O)c1ccc(Oc2c(-c3cccc(-c4ccccc4)c3)nn(-c3nc(C(=O)O)cs3)c2C2CC2)cc1 | – | – | – | – | Active | – | Active | > 57 µM
53 | O=C(O)c1csc(-n2nc(-c3ccc(Cl)c(Cl)c3)cc2O)n1 | inactive | 0.106 µM | inactive | > 57 µM | – | – | – | –
54 | O=C(O)c1csc(-n2nc(-c3ccccc3)cc2C(F)F)n1 | inactive | > 57 µM | inactive | > 57 µM | – | – | – | –
55 | NS(=O)(=O)c1ccc(Cc2c(-c3cccc(-c4ccccc4)c3)nn(-c3nc(C(=O)O)cs3)c2C(F)(F)F)cc1 | – | – | – | – | Active | 33.5 µM | Active | 48.6 µM
56 | NS(=O)(=O)c1ccc(Cc2cn(-c3nc(C(=O)O)cs3)nc2-c2cccc(-c3ccccc3)c2)cc1 | – | – | – | – | Active | 47.4 µM | Active | 48.6 µM
57 | O=C(O)c1csc(-n2nc(-c3cccc(-c4ccccc4)c3)cc2O)n1 | inactive | 0.266 µM | inactive | > 57 µM | – | – | – | –
